Measurements reported in the supplement of paper PMC10307832.

How the values were obtained:
Assay in all cases: relative viability (nuclei count vs DMSO), 5 days (fraction); higher = more cells survive
[1] = system: NCI-H650
How it was run: (§1)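 One day after seeding in 1536-well plates, lung cancer cell lines were dosed by pin tool. Dosing was either single-drug or a fixed anchor-drug dose plus five library-drug doses (not always all listed) in √10 steps. After 5 days, nuclei were stained in one fix-and-stain step and counted on 4× images, and relative viability is the nuclei count of treated wells over that of vehicle wells, given as the median of duplicate plates.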

[2] = system: NCI-H1651
How it was run: as §1

[3] = system: NCI-H1623
How it was run: as §1

[4] = system: NCI-H1648
How it was run: as §1

[5] = system: NCI-H838
How it was run: as §1

[6] = system: RERF-LC-KJ
How it was run: as §1

[7] = system: NCI-H520
How it was run: as §1

[8] = system: NCI-H1944
How it was run: as §1

O=c1cc(-c2cccc3c2Sc2ccccc2S3)oc(N2CCOCC2)c1 + COc1cccc2cc(-c3nc([C@H]4CC[C@H](C(=O)O)CC4)n4ncnc(N)c34)[nH]c12 [OSI-027] (partner 0.5 µM) showed a relative viability ([1]; first compound 0.08 µM) of 0.469, a relative viability ([1]; first compound 0.253 µM) of 0.548 and a relative viability ([1]; first compound 0.8 µM) of 0.508. The relative viability ([1]; first compound 8 µM) was 0.562, the relative viability ([2]; first compound 0.08 µM) was 0.625 and the relative viability ([2]; first compound 0.253 µM) was 0.767. It also gave a relative viability ([2]; first compound 0.8 µM) of 0.711, a relative viability ([2]; first compound 2.53 µM) of 0.6 and a relative viability ([2]; first compound 8 µM) of 0.702. It also gave a relative viability ([3]; first compound 0.08 µM) of 0.593, a relative viability ([3]; first compound 0.253 µM) of 0.447 and a relative viability ([3]; first compound 0.8 µM) of 0.346. It also gave a relative viability ([3]; first compound 2.53 µM) of 0.431, a relative viability ([3]; first compound 8 µM) of 0.374 and a relative viability ([4]; first compound 0.08 µM) of 0.264. It also gave a relative viability ([4]; first compound 0.253 µM) of 0.257, a relative viability ([4]; first compound 0.8 µM) of 0.277 and a relative viability ([4]; first compound 2.53 µM) of 0.22. It also gave a relative viability ([4]; first compound 8 µM) of 0.252, a relative viability ([5]; first compound 0.08 µM) of 0.344 and a relative viability ([5]; first compound 0.253 µM) of 0.417. For the same molecule, the relative viability ([5]; first compound 0.8 µM) was 0.312, the relative viability ([5]; first compound 2.53 µM) was 0.339 and the relative viability ([5]; first compound 8 µM) was 0.41. It also gave a relative viability ([6]; first compound 0.08 µM) of 0.46, a relative viability ([6]; first compound 0.253 µM) of 0.54 and a relative viability ([6]; first compound 0.8 µM) of 0.526. It also gave a relative viability ([6]; first compound 2.53 µM) of 0.499, a relative viability ([6]; first compound 8 µM) of 0.494 and a relative viability ([7]; first compound 0.08 µM) of 0.297. For the same molecule, the relative viability ([7]; first compound 0.253 µM) was 0.257, the relative viability ([7]; first compound 0.8 µM) was 0.297 and the relative viability ([7]; first compound 2.53 µM) was 0.216. For the same molecule, the relative viability ([7]; first compound 8 µM) was 0.296, the relative viability ([8]; first compound 0.08 µM) was 0.376 and the relative viability ([8]; first compound 0.253 µM) was 0.403. The relative viability ([8]; first compound 0.8 µM) was 0.367, the relative viability ([8]; first compound 2.53 µM) was 0.34 and the relative viability ([8]; first compound 8 µM) was 0.38.
O=c1cc(N2CCOCC2)oc2c(-c3cccc4c3sc3ccccc34)cccc12 + Cc1cc(Nc2cc(N3CCN(C)CC3)nc(Sc3ccc(NC(=O)C4CC4)cc3)n2)n[nH]1 [Tozasertib] (partner 0.1 µM) was tested, and the relative viability ([1]; first compound 0.03162 µM) was 0.763, the relative viability ([1]; first compound 0.1 µM) was 0.701 and the relative viability ([1]; first compound 0.3162 µM) was 0.803. It also gave a relative viability ([1]; first compound 1 µM) of 0.704, a relative viability ([2]; first compound 0.01 µM) of 0.687 and a relative viability ([2]; first compound 0.03162 µM) of 0.848. For the same molecule, the relative viability ([2]; first compound 0.1 µM) was 0.844, the relative viability ([2]; first compound 0.3162 µM) was 0.72 and the relative viability ([2]; first compound 1 µM) was 0.751. The relative viability ([3]; first compound 0.01 µM) was 0.472, the relative viability ([3]; first compound 0.03162 µM) was 0.4 and the relative viability ([3]; first compound 0.1 µM) was 0.394. For the same molecule, the relative viability ([3]; first compound 0.3162 µM) was 0.411, the relative viability ([3]; first compound 1 µM) was 0.343 and the relative viability ([4]; first compound 0.01 µM) was 0.503. The relative viability ([4]; first compound 0.03162 µM) was 0.501, the relative viability ([4]; first compound 0.1 µM) was 0.547 and the relative viability ([4]; first compound 0.3162 µM) was 0.621. For the same molecule, the relative viability ([4]; first compound 1 µM) was 0.504, the relative viability ([5]; first compound 0.01 µM) was 0.246 and the relative viability ([5]; first compound 0.03162 µM) was 0.273. It also gave a relative viability ([5]; first compound 0.1 µM) of 0.27, a relative viability ([5]; first compound 0.3162 µM) of 0.298 and a relative viability ([5]; first compound 1 µM) of 0.237. The relative viability ([6]; first compound 0.01 µM) was 0.482, the relative viability ([6]; first compound 0.03162 µM) was 0.576 and the relative viability ([6]; first compound 0.1 µM) was 0.496. The relative viability ([6]; first compound 0.3162 µM) was 0.429, the relative viability ([6]; first compound 1 µM) was 0.522 and the relative viability ([7]; first compound 0.01 µM) was 0.38. It also gave a relative viability ([7]; first compound 0.03162 µM) of 0.409, a relative viability ([7]; first compound 0.1 µM) of 0.418 and a relative viability ([7]; first compound 0.3162 µM) of 0.438. It also gave a relative viability ([7]; first compound 1 µM) of 0.442, a relative viability ([8]; first compound 0.01 µM) of 0.246 and a relative viability ([8]; first compound 0.03162 µM) of 0.249. It also gave a relative viability ([8]; first compound 0.1 µM) of 0.241, a relative viability ([8]; first compound 0.3162 µM) of 0.245 and a relative viability ([8]; first compound 1 µM) of 0.244.
Work on CCN(CC)CCCCNc1ncc2cc(-c3cc(OC)cc(OC)c3)c(NC(=O)NC(C)(C)C)nc2n1 + Cc1cc(Nc2cc(N3CCN(C)CC3)nc(Sc3ccc(NC(=O)C4CC4)cc3)n2)n[nH]1 [Tozasertib] (partner 0.1 µM) yielded a relative viability ([1]; first compound 0.01 µM) of 0.714, a relative viability ([1]; first compound 0.03162 µM) of 0.757 and a relative viability ([1]; first compound 0.1 µM) of 0.765. The relative viability ([1]; first compound 0.3162 µM) was 0.704, the relative viability ([1]; first compound 1 µM) was 0.66 and the relative viability ([2]; first compound 0.01 µM) was 0.747. The relative viability ([2]; first compound 0.03162 µM) was 0.716, the relative viability ([2]; first compound 0.1 µM) was 0.907 and the relative viability ([2]; first compound 0.3162 µM) was 0.714. The relative viability ([2]; first compound 1 µM) was 0.661, the relative viability ([3]; first compound 0.01 µM) was 0.67 and the relative viability ([3]; first compound 0.03162 µM) was 0.454. The relative viability ([3]; first compound 0.1 µM) was 0.43, the relative viability ([3]; first compound 0.3162 µM) was 0.513 and the relative viability ([3]; first compound 1 µM) was 0.416. The relative viability ([4]; first compound 0.01 µM) was 0.657, the relative viability ([4]; first compound 0.03162 µM) was 0.559 and the relative viability ([4]; first compound 0.1 µM) was 0.406. The relative viability ([4]; first compound 0.3162 µM) was 0.4, the relative viability ([4]; first compound 1 µM) was 0.407 and the relative viability ([5]; first compound 0.01 µM) was 0.315. The relative viability ([5]; first compound 0.03162 µM) was 0.282, the relative viability ([5]; first compound 0.1 µM) was 0.259 and the relative viability ([5]; first compound 0.3162 µM) was 0.271. The relative viability ([5]; first compound 1 µM) was 0.205, the relative viability ([6]; first compound 0.01 µM) was 0.547 and the relative viability ([6]; first compound 0.03162 µM) was 0.617. It also gave a relative viability ([6]; first compound 0.1 µM) of 0.51, a relative viability ([6]; first compound 0.3162 µM) of 0.567 and a relative viability ([6]; first compound 1 µM) of 0.489. The relative viability ([7]; first compound 0.01 µM) was 0.383, the relative viability ([7]; first compound 0.03162 µM) was 0.452 and the relative viability ([7]; first compound 0.1 µM) was 0.486. For the same molecule, the relative viability ([7]; first compound 0.3162 µM) was 0.388, the relative viability ([7]; first compound 1 µM) was 0.261 and the relative viability ([8]; first compound 0.01 µM) was 0.25. It also gave a relative viability ([8]; first compound 0.03162 µM) of 0.27, a relative viability ([8]; first compound 0.1 µM) of 0.248 and a relative viability ([8]; first compound 0.3162 µM) of 0.249. It also gave a relative viability ([8]; first compound 1 µM) of 0.213.
